Laboratory results reported in patent US20240336654A1, “ANTIMICROBIAL PEPTIDOMIMETICS” (SPEXIS AG, priority 2021, published 2024).
Where a SMILES comes first, the peptide text is derived from it. Bridges are numbered along the chain shown (N, C = ends). [ ]: non-standard residue; d: D form. The star is where a group is joined. Val(Nα-amidino) = CC(C)[C@H](NC(=N)N)C(=O)*; Dab(iPr) = CC(C)NCC[C@H](N)C(=O)O; Hyp = O=C(O)[C@@H]1C[C@@H](O)CN1; Cha = N[C@@H](CC1CCCCC1)C(=O)O; Cit = NC(=O)NCCC[C@H](N)C(=O)O; Pen = CC(C)(S)[C@H](N)C(=O)O; dDab = NCC[C@@H](N)C(=O)O; Nle = CCCC[C@H](N)C(=O)O; Orn = NCCC[C@H](N)C(=O)O; Dab = NCC[C@H](N)C(=O)O

Tests used:
Format in all cases: cell-based
[1] = test system: Escherichia coli ATCC 25922; settings: ATCC 25922
Procedure, shortened: (§1)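 CLSI broth microdilution, slightly modified: cation-adjusted Mueller-Hinton II broth with about 5×10^5 CFU/mL from a 0.5 McFarland suspension, and two-fold serial peptide dilutions with Polysorbate 80 at 0.002% final. MIC (μg/mL) was the lowest concentration with no visible growth after 18-20 hours at 35° C.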

[2] = test system: Escherichia coli MCR-1 Af 45; settings: MCR-1 Af 45
Procedure, shortened: as §1

[3] = test system: Klebsiella pneumoniae SSI3010; settings: SSI3010
Procedure, shortened: as §1

[4] = test system: human red blood cells (hRBC); settings: red cells of human, 1 h, 200 μg/mL
Procedure, shortened: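 Peptides at 200 μg/mL incubated 1 h at 37 °C with 20% (v/v) washed human RBC, shaking. Hemolysis from supernatant OD540, expressed as percent of 2.5% Triton X-100 lysis, with PBS as 0%.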

| Escherichia coli ATCC 25922 MIC [1] [µg/mL] | Escherichia coli MCR-1 Af45 MIC [2] [µg/mL] | Klebsiella pneumoniae SSI3010 MIC [3] [µg/mL] | Compound | Hemolysis at 0.2 g/L [4] [%] |
| --- | --- | --- | --- | --- |
| 0.25 | 0.25 | 0.5 | CC[C@H](C)[C@H](NC(=O)[C@@H]1C[C@@H](O)CN1C(=O)[C@@H](N)C(C)C)C(=O)N[C@@H]1C(=O)N[C@@H](Cc2ccc(O)cc2)C(=O)N[C@@H](CO)C(=O)N[C@@H](CC(N)=O)C(=O)N[C@@H](CCCNC(=N)N)C(=O)N[C@@H](CCN)C(=O)N[C@@H]([C@@H](C)O)C(=O)N[C@H](CCN)C(=O)N[C@@H](CCCCN)C(=O)N[C@@H](CCN)C(=O)N[C@@H](CCCNC(N)=O)C(=O)N[C@H](C(=O)N[C@@H](Cc2ccc(O)cc2)C(=O)O)CSSC1(C)C [Example 59, Val-Hyp-Ile-Pen-Tyr-Ser-Asn-Arg-Dab-Thr-^DDab-Lys-Dab-Cit-Cys-Tyr] (H-V[Hyp]I[Pen]YSNR[Dab]T[dDab]K[Dab][Cit]CY-OH; disulfide 4-15) | <1 |
| 0.25 | 0.25 | 1 | CC[C@H](C)[C@H](NC(=O)[C@@H]1C[C@@H](O)CN1C(=O)[C@@H](N)C(C)C)C(=O)N[C@@H]1C(=O)N[C@@H](Cc2ccc(O)cc2)C(=O)N[C@@H](CO)C(=O)N[C@@H](CC(N)=O)C(=O)N[C@@H](CCCNC(=N)N)C(=O)N[C@@H](CCN)C(=O)N[C@@H]([C@@H](C)O)C(=O)N[C@H](CCN)C(=O)N[C@@H](CCCCN)C(=O)N[C@@H](CCN)C(=O)N[C@@H](Cc2ccc(O)cc2)C(=O)N[C@H](C(=O)N[C@@H](Cc2ccc(O)cc2)C(=O)O)CSSC1(C)C [Example 60, Val-Hyp-Ile-Pen-Tyr-Ser-Asn-Arg-Dab-Thr-^DDab-Lys-Dab-Tyr-Cys-Tyr] (H-V[Hyp]I[Pen]YSNR[Dab]T[dDab]K[Dab]YCY-OH; disulfide 4-15) | <1 |
| 0.25 | 0.25 | 0.5 | CC[C@H](C)[C@H](NC(=O)[C@@H]1C[C@@H](O)CN1C(=O)[C@@H](N)C(C)C)C(=O)N[C@@H]1C(=O)N[C@@H](Cc2ccc(O)cc2)C(=O)N[C@@H](CO)C(=O)N[C@@H](CC(N)=O)C(=O)N[C@@H](CCCNC(=N)N)C(=O)N[C@@H](CCN)C(=O)N[C@@H]([C@@H](C)O)C(=O)N[C@H](CCN)C(=O)N[C@@H](CCCCN)C(=O)N[C@@H](CCN)C(=O)N[C@@H](CC(N)=O)C(=O)N[C@H](C(=O)N[C@@H](Cc2ccc(O)cc2)C(=O)O)CSSC1(C)C [Example 61, Val-Hyp-Ile-Pen-Tyr-Ser-Asn-Arg-Dab-Thr-^DDab-Lys-Dab-Asn-Cys-Tyr] (H-V[Hyp]I[Pen]YSNR[Dab]T[dDab]K[Dab]NCY-OH; disulfide 4-15) | <1 |
| 0.125 | 0.0625 | 0.25 | CC[C@H](C)[C@H](NC(=O)[C@@H]1C[C@@H](O)CN1C(=O)[C@@H](N)C(C)C)C(=O)N[C@@H]1C(=O)N[C@@H](Cc2ccc(O)cc2)C(=O)N[C@@H](CO)C(=O)N[C@@H](CC(N)=O)C(=O)N[C@@H](CCCNC(=N)N)C(=O)N[C@@H](CCN)C(=O)N[C@@H]([C@@H](C)O)C(=O)N[C@H](CCN)C(=O)N[C@@H](CCCCN)C(=O)N[C@@H](CCN)C(=O)N[C@@H](CCCCN)C(=O)N[C@H](C(=O)N[C@@H](Cc2ccc(O)cc2)C(=O)O)CSSC1(C)C [Example 62, Val-Hyp-Ile-Pen-Tyr-Ser-Asn-Arg-Dab-Thr-^DDab-Lys-Dab-Lys-Cys-Tyr] (H-V[Hyp]I[Pen]YSNR[Dab]T[dDab]K[Dab]KCY-OH; disulfide 4-15) | <1 |
| 0.125 | 0.0625 | 0.25 | CC[C@H](C)[C@H](NC(=O)[C@@H]1C[C@@H](O)CN1C(=O)[C@@H](N)C(C)C)C(=O)N[C@@H]1C(=O)N[C@@H](Cc2ccc(O)cc2)C(=O)N[C@@H](CO)C(=O)N[C@@H](CC(N)=O)C(=O)N[C@@H](CCCNC(=N)N)C(=O)N[C@@H](CCN)C(=O)N[C@@H]([C@@H](C)O)C(=O)N[C@H](CCN)C(=O)N[C@@H](CCCCN)C(=O)N[C@@H](CCN)C(=O)N[C@@H](CCNC(C)C)C(=O)N[C@H](C(=O)N[C@@H](Cc2ccc(O)cc2)C(=O)O)CSSC1(C)C [Example 63, Val-Hyp-Ile-Pen-Tyr-Ser-Asn-Arg-Dab-Thr-^DDab-Lys-Dab-Dab(iPr)-Cys-Tyr] (H-V[Hyp]I[Pen]YSNR[Dab]T[dDab]K[Dab][Dab(iPr)]CY-OH; disulfide 4-15) | <1 |
| 0.0625 | 0.0625 | 0.125 | CC[C@H](C)[C@H](NC(=O)[C@@H]1C[C@@H](O)CN1C(=O)[C@@H](N)C(C)C)C(=O)N[C@@H]1C(=O)N[C@@H](Cc2ccc(O)cc2)C(=O)N[C@@H](CO)C(=O)N[C@@H](CC(N)=O)C(=O)N[C@@H](CCCNC(=N)N)C(=O)N[C@@H](CCN)C(=O)N[C@@H]([C@@H](C)O)C(=O)N[C@H](CCN)C(=O)N[C@@H](CCCCN)C(=O)N[C@@H](CCN)C(=O)N[C@@H](CCCN)C(=O)N[C@H](C(=O)N[C@@H](Cc2ccc(O)cc2)C(=O)O)CSSC1(C)C [Example 64, Val-Hyp-Ile-Pen-Tyr-Ser-Asn-Arg-Dab-Thr-^DDab-Lys-Dab-Orn-Cys-Tyr] (H-V[Hyp]I[Pen]YSNR[Dab]T[dDab]K[Dab][Orn]CY-OH; disulfide 4-15) | <1 |
| 0.25 | 0.0625 | 0.25 | CC[C@H](C)[C@H](NC(=O)[C@@H]1C[C@@H](O)CN1C(=O)[C@@H](N)C(C)C)C(=O)N[C@@H]1C(=O)N[C@@H](Cc2ccc(O)cc2)C(=O)N[C@@H](CO)C(=O)N[C@@H](CC(N)=O)C(=O)N[C@@H](CCCNC(=N)N)C(=O)N[C@@H](CCN)C(=O)N[C@@H]([C@@H](C)O)C(=O)N[C@H](CCN)C(=O)N[C@@H](CCCCN)C(=O)N[C@@H](CCN)C(=O)N[C@@H](CCN)C(=O)N[C@H](C(=O)N[C@@H](CC2CCCCC2)C(=O)O)CSSC1(C)C [Example 65, Val-Hyp-Ile-Pen-Tyr-Ser-Asn-Arg-Dab-Thr-^DDab-Lys-Dab-Dab-Cys-Cha] (H-V[Hyp]I[Pen]YSNR[Dab]T[dDab]K[Dab][Dab]C[Cha]-OH; disulfide 4-15) | <1 |
| 0.0625 | 0.0625 | 0.125 | CC[C@H](C)[C@H](NC(=O)[C@@H]1C[C@@H](O)CN1C(=O)[C@@H](N)C(C)C)C(=O)N[C@@H]1C(=O)N[C@@H](Cc2ccc(O)cc2)C(=O)N[C@@H](CO)C(=O)N[C@@H](CC(N)=O)C(=O)N[C@@H](CCCNC(=N)N)C(=O)N[C@@H](CCN)C(=O)N[C@@H]([C@@H](C)O)C(=O)N[C@H](CCN)C(=O)N[C@@H](CCCCN)C(=O)N[C@@H](CCN)C(=O)N[C@@H](CCN)C(=O)N[C@H](C(=O)N[C@@H](Cc2c[nH]c3ccccc23)C(=O)O)CSSC1(C)C [Example 66, Val-Hyp-Ile-Pen-Tyr-Ser-Asn-Arg-Dab-Thr-^DDab-Lys-Dab-Dab-Cys-Trp] (H-V[Hyp]I[Pen]YSNR[Dab]T[dDab]K[Dab][Dab]CW-OH; disulfide 4-15) | <1 |
| 0.0625 | 0.0625 | 0.125 | CCCC[C@H](NC(=O)[C@@H]1CSSC(C)(C)[C@H](NC(=O)[C@@H](NC(=O)[C@@H]2C[C@@H](O)CN2C(=O)[C@@H](N)C(C)C)[C@@H](C)CC)C(=O)N[C@@H](Cc2ccc(O)cc2)C(=O)N[C@@H](CO)C(=O)N[C@@H](CC(N)=O)C(=O)N[C@@H](CCCNC(=N)N)C(=O)N[C@@H](CCN)C(=O)N[C@@H]([C@@H](C)O)C(=O)N[C@H](CCN)C(=O)N[C@@H](CCCCN)C(=O)N[C@@H](CCN)C(=O)N[C@@H](CCN)C(=O)N1)C(=O)O [Example 67, Val-Hyp-Ile-Pen-Tyr-Ser-Asn-Arg-Dab-Thr-^DDab-Lys-Dab-Dab-Cys-Nle] (H-V[Hyp]I[Pen]YSNR[Dab]T[dDab]K[Dab][Dab]C[Nle]-OH; disulfide 4-15) | <1 |
| 0.0625 | 0.03125 | 0.125 | CC[C@H](C)[C@H](NC(=O)[C@@H]1C[C@@H](O)CN1C(=O)[C@@H](NC(=N)N)C(C)C)C(=O)N[C@@H]1C(=O)N[C@@H](Cc2ccc(O)cc2)C(=O)N[C@@H]([C@@H](C)O)C(=O)N[C@@H](CC(N)=O)C(=O)N[C@@H](CCCNC(=N)N)C(=O)N[C@@H](CCN)C(=O)N[C@@H]([C@@H](C)O)C(=O)N[C@H](CCN)C(=O)N[C@@H](CCCCN)C(=O)N[C@@H](CCN)C(=O)N[C@@H](CCN)C(=O)N[C@H](C(=O)N[C@@H](Cc2ccc(O)cc2)C(=O)O)CSSC1(C)C [Example 68, Gua-Val-Hyp-Ile-Pen-Tyr-Thr-Asn-Arg-Dab-Thr-^DDab-Lys-Dab-Dab-Cys-Tyr] ({Val(Nα-amidino)}-[Hyp]I[Pen]YTNR[Dab]T[dDab]K[Dab][Dab]CY-OH; disulfide 3-14) | <1 |
